Data: paper PMC11277489, “Novel Piperazine Derivatives of Vindoline as Anticancer Agents” (International Journal of Molecular Sciences, 2024)

Tests used:
KM12 [1] = assay: NCI60 five-dose screen, Colon Cancer; format: cell-based; conditions: Homo sapiens; KM12, Colon Cancer; five-dose screen; read-out: GI50
MDA-MB231ATCC = assay: NCI60 five-dose screen, Breast Cancer; format: cell-based; conditions: Homo sapiens, MDA-MB-231; MDA-MB231ATCC, Breast Cancer; five-dose screen; read-out: GI50
HCC-2998 = assay: NCI60 five-dose screen, Colon Cancer; format: cell-based; conditions: Homo sapiens; HCC-2998, Colon Cancer; five-dose screen; read-out: GI50
NCI/ADR-RES [2] = assay: NCI60 five-dose screen, Ovarian Cancer; format: cell-based; conditions: Homo sapiens, Ovarian Cancer, five-dose screen, read-out: GI50
OVCAR-4 = assay: NCI60 five-dose screen, Ovarian Cancer; format: cell-based; conditions: Homo sapiens; OVCAR-4, Ovarian Cancer; five-dose screen; read-out: GI50
UO-31 [3] = assay: NCI60 five-dose screen, Renal Cancer; format: cell-based; conditions: Homo sapiens; UO-31, Renal Cancer; five-dose screen; read-out: GI50
SNB-19 = assay: NCI60 one-dose screen (10 μM), CNS Cancer; format: cell-based; conditions: Homo sapiens; 10 μM; SNB-19, CNS Cancer; read-out: Growth percent rate
ACHN = assay: NCI60 five-dose screen, Renal Cancer; format: cell-based; conditions: Homo sapiens, Renal Cancer, five-dose screen, read-out: GI50
MALME-3M [4] = assay: NCI60 five-dose screen, Melanoma; format: cell-based; conditions: Homo sapiens; MALME-3M, Melanoma; five-dose screen; read-out: GI50
MALME-3M [5] = assay: NCI60 one-dose screen (10 μM), Melanoma; format: cell-based; conditions: Homo sapiens; 10 μM; MALME-3M, Melanoma; read-out: Growth percent rate
786–0 = assay: NCI60 five-dose screen, Renal Cancer; format: cell-based; conditions: Homo sapiens; 786–0, Renal Cancer; five-dose screen; read-out: GI50
T-47D = assay: NCI60 one-dose screen (10 μM), Breast Cancer; format: cell-based; conditions: Homo sapiens, T47D; 10 μM; T-47D, Breast Cancer; read-out: Growth percent rate
LOX IMVI = assay: NCI60 one-dose screen (10 μM), Melanoma; format: cell-based, human; conditions: for activity at 10 µM: Homo sapiens, LOX IMVI, Melanoma, read-out: Growth percent rate
OVCAR-5 [6] = assay: NCI60 five-dose screen, Ovarian Cancer; format: cell-based; conditions: Homo sapiens; OVCAR-5, Ovarian Cancer; five-dose screen; read-out: GI50
UACC-62 = assay: NCI60 one-dose screen (10 μM), Melanoma; format: cell-based; conditions: Homo sapiens; 10 μM; UACC-62, Melanoma; read-out: Growth percent rate
NCI/ADR-RES [7] = assay: NCI60 one-dose screen (10 μM), Ovarian Cancer; format: cell-based; conditions: Homo sapiens, 10 μM, Ovarian Cancer, read-out: Growth percent rate
SN12C = assay: NCI60 five-dose screen, Renal Cancer; format: cell-based; conditions: Homo sapiens, Renal Cancer, five-dose screen, read-out: GI50
SNB-75 = assay: NCI60 five-dose screen, CNS Cancer; format: cell-based; conditions: Homo sapiens; SNB-75, CNS Cancer; five-dose screen; read-out: GI50
NCI-H460 = assay: NCI60 five-dose screen, Non-small Cell Lung Cancer; format: cell-based; conditions: Homo sapiens; NCI-H460, Non-small Cell Lung Cancer; five-dose screen; read-out: GI50
SW-620 = assay: NCI60 five-dose screen, Colon Cancer; format: cell-based; conditions: Homo sapiens; SW-620, Colon Cancer; five-dose screen; read-out: GI50
UO-31 [8] = assay: NCI60 one-dose screen (10 μM), Renal Cancer; format: cell-based; conditions: Homo sapiens; 10 μM; UO-31, Renal Cancer; read-out: Growth percent rate
NCI-H322M = assay: NCI60 five-dose screen, Non-small Cell Lung Cancer; format: cell-based; conditions: Homo sapiens, Non-small Cell Lung Cancer, five-dose screen, read-out: GI50
HS 578T = assay: NCI60 five-dose screen, Breast Cancer; format: cell-based; conditions: Homo sapiens; HS 578T, Breast Cancer; five-dose screen; read-out: GI50
SR [9] = assay: NCI60 five-dose screen, Leukemia; format: cell-based; conditions: Homo sapiens, Leukemia, five-dose screen, read-out: GI50
TK-10 [10] = assay: NCI60 five-dose screen, Renal Cancer; format: cell-based; conditions: Homo sapiens; TK-10, Renal Cancer; five-dose screen; read-out: GI50
SK-OV-3 = assay: NCI60 one-dose screen (10 μM), Ovarian Cancer; format: cell-based; conditions: Homo sapiens; 10 μM; SK-OV-3, Ovarian Cancer; read-out: Growth percent rate
MDA-MB-231/ATCC = assay: NCI60 one-dose screen (10 μM), Breast Cancer; format: cell-based, human; conditions: for activity at 10 µM: Homo sapiens, MDA-MB-231/ATCC, Breast Cancer, read-out: Growth percent rate
KM12 [11] = assay: NCI60 one-dose screen (10 μM), Colon Cancer; format: cell-based, human; conditions: for activity at 10 µM: Homo sapiens, KM12, Colon Cancer, read-out: Growth percent rate
BT-549 = assay: NCI60 one-dose screen (10 μM), Breast Cancer; format: cell-based; conditions: Homo sapiens; 10 μM; BT-549, Breast Cancer; read-out: Growth percent rate
OVCAR-3 = assay: NCI60 five-dose screen, Ovarian Cancer; format: cell-based; conditions: Homo sapiens; OVCAR-3, Ovarian Cancer; five-dose screen; read-out: GI50
MCF7 = assay: NCI60 five-dose screen, Breast Cancer; format: cell-based; conditions: Homo sapiens; MCF7, Breast Cancer; five-dose screen; read-out: GI50
TK-10 [12] = assay: NCI60 one-dose screen (10 μM), Renal Cancer; format: cell-based; conditions: Homo sapiens; 10 μM; TK-10, Renal Cancer; read-out: Growth percent rate
A549/ATCC = assay: NCI60 five-dose screen, Non-small Cell Lung Cancer; format: cell-based; conditions: Homo sapiens; A549/ATCC, Non-small Cell Lung Cancer; five-dose screen; read-out: GI50
UACC-257 = assay: NCI60 five-dose screen, Melanoma; format: cell-based; conditions: Homo sapiens; UACC-257, Melanoma; five-dose screen; read-out: GI50
SR [13] = assay: NCI60 one-dose screen (10 μM), Leukemia; format: cell-based; conditions: Homo sapiens, 10 μM, Leukemia, read-out: Growth percent rate
MOLT-4 = assay: NCI60 five-dose screen, Leukemia; format: cell-based; conditions: Homo sapiens; MOLT-4, Leukemia; five-dose screen; read-out: GI50
CCRF-CEM = assay: NCI60 five-dose screen, Leukemia; format: cell-based; conditions: Homo sapiens, Leukemia, five-dose screen, read-out: GI50
OVCAR-5 [14] = assay: NCI60 one-dose screen (10 μM), Ovarian Cancer; format: cell-based; conditions: Homo sapiens; 10 μM; OVCAR-5, Ovarian Cancer; read-out: Growth percent rate
PC-3 [15] = assay: NCI60 five-dose screen, Prostate Cancer; format: cell-based; conditions: Homo sapiens; PC-3, Prostate Cancer; five-dose screen; read-out: GI50
SF-295 = assay: NCI60 one-dose screen (10 μM), CNS Cancer; format: cell-based; conditions: Homo sapiens; 10 μM; SF-295, CNS Cancer; read-out: Growth percent rate
NCI-H522 = assay: NCI60 five-dose screen, Non-small Cell Lung Cancer; format: cell-based; conditions: Homo sapiens; NCI-H522, Non-small Cell Lung Cancer; five-dose screen; read-out: GI50
NCI-H226 = assay: NCI60 one-dose screen (10 μM), Non-small Cell Lung Cancer; format: cell-based; conditions: Homo sapiens; 10 μM; NCI-H226, Non-small Cell Lung Cancer; read-out: Growth percent rate
IGROV1 = assay: NCI60 five-dose screen, Ovarian Cancer; format: cell-based; conditions: Homo sapiens, IGROV-1; IGROV1, Ovarian Cancer; five-dose screen; read-out: GI50
MDA-MB-468 = assay: NCI60 one-dose screen (10 μM), Breast Cancer; format: cell-based; conditions: Homo sapiens; 10 μM; MDA-MB-468, Breast Cancer; read-out: Growth percent rate
PC-3 [16] = assay: NCI60 one-dose screen (10 μM), Prostate Cancer; format: cell-based; conditions: Homo sapiens; 10 μM; PC-3, Prostate Cancer; read-out: Growth percent rate

SMILES: CCC12C=CCN3CCC4(c5cc(NC(=O)CN6CCN(c7ccc(C(F)(F)F)cc7)CC6)c(OC)cc5N(C)C4C(O)(C(=O)OC)C1OC(C)=O)C32 (stereo not shown) [Compound 17]
- GI50 (KM12 [1]): 3.72 µM
- GI50 (MDA-MB231ATCC): 11.2 µM
- GI50 (HCC-2998): 7.76 µM
- GI50 (NCI/ADR-RES [2]): 6.03 µM
- GI50 (OVCAR-4): 3.89 µM
- GI50 (UO-31 [3]): 5.13 µM
- activity at 10 µM (SNB-19): 18.4%
- GI50 (ACHN): 5.62 µM
- GI50 (MALME-3M [4]): 14.8 µM
- activity at 10 µM (MALME-3M [5]): -89.5%
- GI50 (786–0): 6.31 µM
- activity at 10 µM (T-47D): 9.79%
- growth percent rate (LOX IMVI; 10 μM one-dose, LOX-IMVI melanoma, negative = lethality): −95.37%
- activity at 10 µM (LOX IMVI): -95.4%
- GI50 (OVCAR-5 [6]): 10.7 µM
- activity at 10 µM (UACC-62): -54.8%
- activity at 10 µM (NCI/ADR-RES [7]): 0.4%
- GI50 (SN12C): 7.76 µM
- GI50 (SNB-75): 1.45 µM
- GI50 (NCI-H460): 6.46 µM
- GI50 (SW-620): 5.75 µM
- activity at 10 µM (UO-31 [8]): 0.08%
- GI50 (NCI-H322M): 15.1 µM
- GI50 (HS 578T): 14.8 µM
- GI50 (SR [9]): 2.95 µM
- GI50 (TK-10 [10]): 4.57 µM
- activity at 10 µM (SK-OV-3): 6.93%
- growth percent rate (MDA-MB-231/ATCC; 10 μM one-dose, MDA-MB-231/ATCC breast cancer, negative = lethality): −86.10%
- activity at 10 µM (MDA-MB-231/ATCC): -86.2%
- growth percent rate (KM12 [11]; 10 μM one-dose, KM12 colon cancer, negative = lethality): −84.40%
- activity at 10 µM (KM12 [11]): -84.4%
- activity at 10 µM (BT-549): -50.4%
- GI50 (OVCAR-3): 2.88 µM
- GI50 (MCF7): 3.72 µM
- activity at 10 µM (TK-10 [12]): 33.4%
- GI50 (A549/ATCC): 4.07 µM
- GI50 (UACC-257): 5.5 µM
- activity at 10 µM (SR [13]): -11.4%
- GI50 (MOLT-4): 2.09 µM
- GI50 (CCRF-CEM): 3.24 µM
- activity at 10 µM (OVCAR-5 [14]): -41.6%
- GI50 (PC-3 [15]): 3.31 µM
- activity at 10 µM (SF-295): -70.2%
- GI50 (NCI-H522): 10.5 µM
- activity at 10 µM (NCI-H226): -61.9%
- GI50 (IGROV1): 10 µM
- activity at 10 µM (MDA-MB-468): -62.5%

SMILES: CC[C@]12C=CCN3CC[C@@]4(c5ccc(OC)cc5N(C)[C@H]4[C@@](O)(C(=O)OC)[C@@H]1OC(=O)CCCN1CCN(Cc4ccc(F)cc4)CC1)[C@@H]32 [Compound 24]
- GI50 (KM12 [1]): 10.5 µM
- GI50 (MDA-MB231ATCC): 2.82 µM
- GI50 (HCC-2998): 2.19 µM
- GI50 (NCI/ADR-RES [2]): 11.8 µM
- GI50 (OVCAR-4): 5.37 µM
- GI50 (UO-31 [3]): 3.09 µM
- activity at 10 µM (PC-3 [16]): 12.9%
- activity at 10 µM (SNB-19): 49.1%
- GI50 (ACHN): 5.89 µM
- GI50 (MALME-3M [4]): 2.29 µM
- activity at 10 µM (MALME-3M [5]): -97.2%
- GI50 (786–0): 6.31 µM
- activity at 10 µM (T-47D): 28.8%
- activity at 10 µM (LOX IMVI): 5.04%
- GI50 (OVCAR-5 [6]): 13.8 µM
- activity at 10 µM (UACC-62): 34.7%
- activity at 10 µM (NCI/ADR-RES [7]): 42%
- GI50 (SN12C): 8.32 µM
- GI50 (SNB-75): 1.12 µM
- GI50 (NCI-H460): 8.51 µM
- GI50 (SW-620): 13.5 µM
- activity at 10 µM (UO-31 [8]): 20.7%
- GI50 (NCI-H322M): 8.32 µM
- GI50 (HS 578T): 4.07 µM
- GI50 (SR [9]): 3.47 µM
- GI50 (TK-10 [10]): 4.9 µM
- activity at 10 µM (SK-OV-3): 70%
- activity at 10 µM (MDA-MB-231/ATCC): 51.5%
- activity at 10 µM (KM12 [11]): 45.7%
- activity at 10 µM (BT-549): 16.3%
- GI50 (OVCAR-3): 10.7 µM
- GI50 (MCF7): 3.98 µM
- activity at 10 µM (TK-10 [12]): 42.6%
- GI50 (A549/ATCC): 10.2 µM
- GI50 (UACC-257): 2 µM
- activity at 10 µM (SR [13]): 4.82%
- GI50 (MOLT-4): 1.74 µM
- GI50 (CCRF-CEM): 4.07 µM
- activity at 10 µM (OVCAR-5 [14]): 81.2%
- GI50 (PC-3 [15]): 4.17 µM
- activity at 10 µM (SF-295): 70.2%
- GI50 (NCI-H522): 13.8 µM
- activity at 10 µM (NCI-H226): 50.2%
- GI50 (IGROV1): 2.51 µM
